{"source": "ChEMBL document CHEMBL1149679", "about": "(Bioorg Med Chem Lett, 2007)", "key": {"[1]": {"target": "T1, Polyunsaturated fatty acid lipoxygenase ALOX15 (Oryctolagus cuniculus, UniProt P12530)", "T1 sequence (P12530 whole entry)": "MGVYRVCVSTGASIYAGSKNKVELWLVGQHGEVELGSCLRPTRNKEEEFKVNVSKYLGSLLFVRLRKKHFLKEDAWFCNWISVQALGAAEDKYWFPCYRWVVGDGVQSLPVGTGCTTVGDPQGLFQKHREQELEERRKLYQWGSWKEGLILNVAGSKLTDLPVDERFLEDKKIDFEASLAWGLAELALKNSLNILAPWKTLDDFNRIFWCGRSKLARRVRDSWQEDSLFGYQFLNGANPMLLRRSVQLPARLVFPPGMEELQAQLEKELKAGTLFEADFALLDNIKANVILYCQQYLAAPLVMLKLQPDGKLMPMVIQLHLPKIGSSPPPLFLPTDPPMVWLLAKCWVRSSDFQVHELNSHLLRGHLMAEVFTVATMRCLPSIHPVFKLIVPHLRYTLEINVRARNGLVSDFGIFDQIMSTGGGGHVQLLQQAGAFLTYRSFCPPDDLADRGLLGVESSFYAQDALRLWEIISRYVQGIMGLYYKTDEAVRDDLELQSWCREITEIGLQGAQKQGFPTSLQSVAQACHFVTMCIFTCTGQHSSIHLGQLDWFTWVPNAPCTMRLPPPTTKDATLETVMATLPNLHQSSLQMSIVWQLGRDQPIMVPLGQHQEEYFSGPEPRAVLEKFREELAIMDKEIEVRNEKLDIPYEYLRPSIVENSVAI", "test": "Inhibition of rabbit 15-lipoxygenase in presence of linoleic acid"}, "[2]": {"target": "T1, Polyunsaturated fatty acid lipoxygenase ALOX15", "test": "Inhibition of rabbit 15-lipoxygenase in presence of arachidonic acid"}, "[3]": {"test": "AUC in Sprague-Dawley rat at 7 mg/kg, po", "assay_type": "ADME, organism-based", "design": "dose 7 mg/kg, route oral", "settings": "plasma"}, "[4]": {"test": "Cmax in Sprague-Dawley rat at 7 mg/kg, po", "assay_type": "ADME, organism-based", "design": "dose 7 mg/kg, route oral", "settings": "in vivo"}}, "data": [{"smiles": "CCCCN1CCN(S(=O)(=O)NCCc2nc(-c3cccs3)[nH]c2-c2ccc(OC)cc2)CC1", "values": [{"measurement": "IC50", "setting": "[1]", "result": 14, "unit": "nM"}, {"measurement": "IC50", "setting": "[2]", "result": 50, "unit": "nM"}, {"measurement": "AUC", "setting": "[3]", "result": 4.4, "unit": "µM·h"}, {"measurement": "Cmax", "setting": "[4]", "result": 1700, "unit": "nM"}]}]}
